Test results taken from PubChem BioAssay AID493013 (Southern Research Specialized Biocontainment Screening …, 2011).
Activity calls are given as the source filed them. No rule for the calls is given here.

tested on: not listed separately; test: mammalian cell cytotoxicity, dose response, cytotoxicity control, secondary assay, set 2 (AID 493013); settings: mammalian cell line viability, cytotoxicity counter-screen; at 100 µM (top of the series)

Row | SMILES | viability
1 | Cc1ccc(OCC(=O)Nc2ccc(Cl)cc2)c(C)c1 | 93.6% (inactive)
2 | Cc1ccc(OC(C)C(=O)Nc2ncccn2)c(C)c1 (centres undefined) | 86.1% (inactive)
3 | c1ccc(OCc2nnc(-c3ccccc3)o2)cc1 | 72.5% (inactive)
4 | Cc1ccccc1OCC(=O)Nc1ncccn1 | 100% (inactive)
5 | O=C(COc1ccccc1Cl)Nc1nc2ccccc2s1 | 73.1% (inactive)
6 | COc1ccc(C(=O)Nc2ccc3nc(N4CCCCC4)cc(C)c3c2)c(OC)c1 | 92% (inactive)
7 | Cc1ccccc1OCC(=O)Nc1noc(-c2ccccc2)n1 | 96.4% (inactive)
8 | Cc1cc2cc(Cl)ccc2[nH]1 | 84.1% (inactive)
9 | Oc1ccc2[nH]ccc2c1 | 101% (inactive)
10 | Cc1cccc(C)c1OCC(=O)Nc1nc2ccccc2s1 | 84.5% (inactive)
11 | CC(=O)c1c(C)n(-c2ccccc2C)c2ccc(O)cc12 | 82.3% (inactive)
12 | Cc1onc(-c2c(Cl)cccc2Cl)c1/C(N)=N/OC(=O)C1CC1 | 102% (inactive)
13 | O=C(Cc1csc(-c2ccccc2F)n1)Nc1nc2ccccc2[nH]1 | 88.2% (inactive)
14 | Cc1cc(C)c(OCC(=O)Nc2nc3ccccc3[nH]2)c(C)c1 | 85.7% (inactive)
15 | O=C(COC(=O)C1CC1)c1c[nH]c2ccccc12 | 95.5% (inactive)
16 | CCOc1ccc2nc(NC(=O)COc3ccc(OC)cc3)sc2c1 | 102% (inactive)
17 | O=C(COC(=O)C1=COCCO1)Nc1ccc2c(c1)OCO2 | 89% (inactive)
18 | COc1ccc2nc(NC(=O)COc3ccccc3C(C)C)sc2c1 | 93.8% (inactive)
19 | Cc1ccccc1OCC(=O)Nc1nnn(C)n1 | 87.8% (inactive)
20 | COc1ccc2nc(NC(=O)COc3c(C)cc(C)cc3C)sc2c1 | 79.6% (inactive)

Row | SMILES | viability
21 | CC(=O)Nc1ccc2nc(NC(=O)Cc3ccccc3)sc2c1 | 82.2% (inactive)
22 | CC(=O)c1c(C)n(-c2ccccc2)c2ccc(OC(C)C)cc12 | 79.6% (inactive)
23 | Cc1cc2cc(O)ccc2[nH]1 | 105% (inactive)
24 | Cc1cccnc1NC(=S)NC(=O)c1cncc(Br)c1 | 106% (inactive)
25 | O=C(Cc1ccccc1Cl)Nc1nc2ccccc2[nH]1 | 84.9% (inactive)
26 | CCOc1ccc2nc(NC(=O)COc3ccc(F)cc3)sc2c1 | 96.4% (inactive)
27 | Cc1cc2cc(F)ccc2[nH]1 | 95% (inactive)
28 | COc1cccc(NC(=O)C2CC2)c1 | 102% (inactive)
29 | Cc1ccc(OCC(=O)Nc2cccc3c(NC(=O)COc4ccc(C)cc4C)cccc23)c(C)c1 | 96.3% (inactive)
30 | Cc1ccccc1OCC(=O)Nc1ncn[nH]1 | 80.5% (inactive)
31 | CCOc1ccc(NC(=O)COc2ccc(C)cc2C)cc1 | 78.7% (inactive)
32 | CCOc1ccc2nc(NC(=O)Cc3ccc(OC)cc3)sc2c1 | 83.6% (inactive)
33 | N/C(=N\c1nc2ccccc2o1)NC(=O)c1ccccc1Br | 84.6% (inactive)
34 | Cc1ccc(OCC(=O)Nc2nc3c(Cl)cccc3s2)cc1 | 97% (inactive)
35 | CCOc1ccc2c(c1)c(C(C)=O)c(C)n2Cc1ccco1 | 94.5% (inactive)
36 | O=C(CSc1n[nH]c(=O)n1C1CC1)c1ccc2c(c1)OCCO2 | 94.5% (inactive)
37 | CC(=O)c1c(C)n(-c2ccccc2)c2ccc(O)cc12 | 80.4% (inactive)
38 | COc1ccc2nc(NC(=O)COc3ccccc3)sc2c1 | 83.9% (inactive)
39 | CCOc1ccc2nc(NC(=O)COc3ccccc3)sc2c1 | 76.4% (inactive)
40 | Cc1ccc(OCC(=O)Nc2nc3ccc(F)cc3s2)cc1 | 84.2% (inactive)

Row | SMILES | viability
41 | Cc1ccc(OCC(=O)Nc2nnn(C)n2)c(C)c1 | 85.2% (inactive)
42 | S=C(Nc1ccccc1)Nc1ccc(Cl)cn1 | 97.2% (inactive)
43 | COc1cccc(NC(=S)Nc2cc(C)cc(C)n2)c1 | 89.5% (inactive)
44 | Cc1cc(C)c(OCC(=O)Nc2nc3ccccc3s2)c(Cl)c1 | 83.2% (inactive)
45 | Cc1cc(C)c(OCC(=O)Nc2nc3ccc(C)cc3s2)c(C)c1 | 87.7% (inactive)
46 | Cc1cc2ccccc2[nH]1 | 100% (inactive)
47 | COc1ccc2nc(NC(=O)COc3ccc(Cl)cc3)sc2c1 | 92.1% (inactive)
48 | O=C(O)CCC(=O)Nc1nc2ccccc2s1 | 98.8% (inactive)
49 | O=C(OC(C(=O)Nc1ccc(Cl)cc1C(F)(F)F)c1ccccc1)C1=COCCO1 (centres undefined) | 72.7% (inactive)
50 | COc1ccc2nc(NC(=O)c3oc4ccccc4c3C)sc2c1 | 80.8% (inactive)
51 | CC(=O)c1c(C)n(-c2cccc(Cl)c2)c2ccc(O)cc12 | 78.9% (inactive)
52 | CN(NC(=O)c1c(Cl)cccc1Cl)c1cccc(Cl)n1 | 79.9% (inactive)
53 | N/C(=N\c1nc2ccccc2o1)NC(=O)c1ccccc1F | 96.4% (inactive)
54 | O=C(COc1ccc2ccccc2c1)Nc1nc2ccccc2[nH]1 | 91.9% (inactive)
55 | CCc1ccc2nc(/N=C(\N)NC(=O)c3ccccc3)nc(C)c2c1 | 81.6% (inactive)
56 | CCCOc1ccc2c(c1)c(C(C)=O)c(C)n2-c1ccccc1 | 97.1% (inactive)
57 | O=C(CC12CC3CC(CC(C3)C1)C2)NCc1ccc(F)cc1 | 86.5% (inactive)
58 | COC(=O)c1ccc2nc(NC(=O)COc3ccccc3)sc2c1 | 88.8% (inactive)
59 | COc1ccc2c(c1)c(C(C)=O)c(C)n2-c1ccccc1 | 92.5% (inactive)

tested on: mammalian cell line viability, cytotoxicity counter-screen; test: as above; settings: not given

Row | SMILES | CC50 [µM]
60 | Cc1ccc2oc(/N=C(\N)NC(=O)c3ccccc3)nc2c1 | 5.79
61 | Cc1c(OCc2ccc(C(=O)O)cc2)ccc2c(-c3ccccc3)cc(=O)oc12 | 51.8
62 | Cc1ccccc1C(=O)Nc1nc2ccccc2[nH]1 | 71.4
63 | CCOC(=O)c1cnc2cc(-c3ccc(C(C)(C)C)cc3)nn2c1N | 74.6
64 | O=C(COc1ccc2c3c(c(=O)oc2c1)CCC3)Nc1nc2ccccc2[nH]1 | 23.4
65 | CCC(CC)c1nnc(NC(=O)c2ccc(N3CCCCC3)c([N+](=O)[O-])c2)s1 | 41.3
66 | O=C(Nc1nc2ccccc2[nH]1)c1ccc(Cl)c(Cl)c1 | 83.6
67 | O=C(COc1cccc2ccccc12)Nc1nc2ccccc2s1 | 77.7
68 | COc1ccccc1C(=O)N/C(N)=N/c1nc2ccccc2o1 | 16.6
69 | c1ccc(Nc2ncnc3c2oc2ccccc23)cc1 | 76.9
70 | CCOc1ccc2nc(NC(=O)COc3ccc(Cl)c(C)c3)sc2c1 | 38.6
71 | CCOc1ccc2nc(NC(=O)C3(c4ccccc4)CCCC3)sc2c1 | 62.3
72 | COc1ccc2nc(NC(=O)C(C)Oc3ccccc3)sc2c1 (centres undefined) | 87.7
73 | COc1ccc2nc(NC(=O)COc3ccc(C)cc3)sc2c1 | 29.8
74 | N/C(=N\c1nc2ccccc2o1)NC(=O)c1ccc(F)cc1 | 12.5
75 | O=C(Nc1ccccc1)Nc1csc2ccccc12 | 31.9
76 | Cc1ccc2sc(NC(=O)COc3ccccc3)nc2c1C | 20.2
77 | COC(=O)c1sc(-c2ccc(C(C)(C)C)cc2)cc1NC(=O)CCC(=O)O | 64.7
78 | Cc1ccccc1OCC(=O)Nc1ccccc1N1CCCCC1 | 51
79 | O=C(CCS(=O)(=O)c1ccc(F)cc1)Nc1nnc(-c2cccs2)o1 | 41.6

Row | SMILES | CC50 [µM]
80 | COc1cccc(-c2ccc(-c3noc(-c4ccccc4F)n3)c(OC)n2)c1 | 46.7
81 | N/C(=N\c1nc2ccccc2o1)NC(=O)COc1ccc2ccccc2c1 | 37.3
82 | CC(=O)Nc1ccc2nc(NC(=O)COc3ccccc3)sc2c1 | 49.8
83 | Cc1ccc(OCC(=O)Nc2ccc3c4c(cccc24)CC3)c(C)c1 | 27.2
84 | N/C(=N\c1nc2cc(Cl)ccc2o1)NC(=O)c1ccccc1 | 14.5
85 | O=C(Nc1nc2ccccc2[nH]1)c1cc2cc(Br)ccc2o1 | 11.5
86 | COc1ccc(Cl)cc1C(=O)Nc1nc2ccccc2[nH]1 | 25.4
87 | COC(=O)c1c(C)n(-c2ccccc2)c2ccc(O)cc12 | 61.3
88 | CCOc1ccc2nc(NC(=O)C(C)Oc3ccccc3F)sc2c1 (centres undefined) | 67.7
89 | OCCCc1cn(-c2ccccc2)c2ccccc12 | 90
90 | CCOc1ccc2c(c1)c(C(C)=O)c(C)n2-c1ccccc1Cl | 47.7
91 | CC(C)(Oc1ccc(Cl)cc1)C(=O)Nc1nc2ccccc2s1 | 72.3
92 | CCCN1CC(O)=C(c2nc3ccccc3s2)C1=N | 90.5
93 | O=C(COc1ccccc1)Nc1nc2ccccc2s1 | 66.7
94 | CC(Oc1ccc(Cl)cc1)C(=O)Nc1nc2ccccc2s1 (centres undefined) | 46.4
95 | N/C(=N\c1nc2ccccc2o1)NC(=O)c1ccccc1 | 7.4
96 | Cc1ccccc1OCC(=O)Nc1ccccc1-c1ccccc1 | 77
97 | CCOc1ccc2c(c1)c(C(C)=O)c(C)n2-c1ccccc1 | 94.5
98 | O=C(COc1ccc(Cl)cc1)Nc1nc2ccc(F)cc2s1 | 57.2
99 | CC(C)Cn1c2c(c(O)c(C(=O)Nc3nccs3)c1=O)CCCC2 | 78
